Measured values: patent publication US8269010B2, “3-amino-pyridine derivatives for the treatment of metabolic disorders” (Piramal Healthcare Limited, priority 2006, dated 2012)
Several values for one entry are separate records, joined by “and”; a condition that tells them apart may be missing. Equal entries are not always repeated.

What was measured:
[1] = system: insulin resistant adipocytes (3T3 L1); assay: In vitro model exhibiting insulin resistance (IR assay): 14C-2-deoxyglucose uptake; format: cell-based; settings: glucose uptake; for fold induction at 10 µM: Mus musculus, dexamethasone-induced insulin resistant 3T3 L1 adipocytes, test compound 10 μM/mL, vehicle = 1.0, cut off 1.50 fold, read-out: Fold activity (fold activity over vehicle); for % of Rosiglitazone (comparison with Rosiglitazone): insulin resistant 3T3 L1 adipocytes, test compound 10 μM vs Rosiglitazone 0.1 μM
Description: The assay was designed as in the reference, British Journal of Pharmacology, 130, 351-58, 2000, the disclosure of which is incorporated by reference for the teaching of the assay. The solution of test compound (10 μM/mL) was prepared in DMSO. […] Differentiation into adipocytes was induced by the known methods as described below. (See, also, J. Biol. […] 3T3 L1 fibroblasts were seeded in 24- or 6-well plates at a density of 0.5−2×10^4 cells/well and were allowed to reach maximal confluency. The confluent fibroblasts were exposed to culture medium for 2 days. […] The mature adipocytes were exposed to dexamethasone, 100 nM added in ethanol, in culture medium and incubated for 2 days. […] The test compound was also present during this period. After 3-4 hours, the medium was aspirated and replaced with Kreb's Ringer phosphate (KRP) buffer at pH 7.4 and with human/porcine insulin, 200 nM. The cells were incubated for 30 minutes at 37° C. […] After exactly 5 minutes, the plates were transferred to ice trays and medium was rapidly aspirated. The cell layer was washed twice with ice-cold phosphate buffered saline, (PBS), pH 7.4. […] Non-specific glucose uptake was assayed in wells exposed to cytochalasin B, inhibitor of glucose transport. […] Statistical analysis was performed using unpaired t-test.

[2] = molecular target: T1, Human PPARγ (Homo sapiens, UniProt P37231); assay: Human PPARγ transactivation assay (luciferase reporter, HEK293 cells); format: cell-based; settings: 48 hours
T1 construct: Human full length PPARγ cDNA was cloned into pSG5 expression vector; expressed in transfected cells; host or cells: HEK293 cells
T1 sequence (P37231 1-505): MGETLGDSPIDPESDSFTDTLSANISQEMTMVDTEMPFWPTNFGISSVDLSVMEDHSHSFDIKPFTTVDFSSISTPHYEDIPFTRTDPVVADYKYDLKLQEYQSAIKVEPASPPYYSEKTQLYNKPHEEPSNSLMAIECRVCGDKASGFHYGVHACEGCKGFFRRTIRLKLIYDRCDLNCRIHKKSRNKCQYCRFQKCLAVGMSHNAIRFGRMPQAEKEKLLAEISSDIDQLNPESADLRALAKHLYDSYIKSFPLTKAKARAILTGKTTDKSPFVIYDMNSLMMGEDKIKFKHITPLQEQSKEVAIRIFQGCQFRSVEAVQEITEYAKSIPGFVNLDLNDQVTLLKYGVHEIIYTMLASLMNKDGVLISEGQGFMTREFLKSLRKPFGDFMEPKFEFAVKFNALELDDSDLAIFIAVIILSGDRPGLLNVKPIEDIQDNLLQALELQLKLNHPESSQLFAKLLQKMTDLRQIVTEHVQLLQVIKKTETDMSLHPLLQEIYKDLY
Description: The assay was designed as in the reference, Biochem. Biophys. Res. Comm. 175:865-871, 1991, the disclosure of which is incorporated by reference for the teaching of the assay. Human PPARγ activity was evaluated by transactivation using a luciferase reporter gene. The pBL-TK-luciferase reporter plasmid AOX-3×PPRE-TK-LUC contains three copies of the rat acyl CoA oxidase PPRE cloned upstream of the minimal herpes simplex virus thymidine kinase (TK) promoter. Human full length PPARγ cDNA was cloned into pSG5 expression vector (Stratagene, Lo Jolla, Calif.).
HEK293 cells were seeded in 24 well plates and grown in DMEM supplemented with 10% (v/v) FCS. After 24 hours, they were transfected with 100 ng of hPPARγ receptor and 300 ng of AOX-3×PPRE-LUC reporter construct per well using Fugen 6 transfection reagent (Roche, Indianapolis, Ind.). […] The control was 0.1% DMSO. After 48 hours, transactivation activity was determined by luciferase assay using Steady Glow reagent (Promega, Madison, Wis.).

[3] = system: genetically diabetic db/db BL/6J mice; assay: Screening in db/db BL/6J mice: reduction of plasma glucose levels; format: in vivo; settings: 10 days
Description: The protocol was designed as in references. • 1.
The screening of compounds was based on their ability to reduce the plasma glucose levels in genetically diabetic db/db BL/6J mice.
Male db/db mice (obtained from the Animal House of Nicholas Piramal Research Centre, Goregaon, Mumbai, India) were used for this study (body weight in the range of 30-40 g and age is 6-8 weeks) and were kept eight per cage in individually ventilated cages at controlled temperature (22±1° C.) and humidity (45±5%). Food and water were provided ad libitum during their laboratory stay, except for four hours fasting prior to blood sample collection. 12 hours light and dark cycle was followed during the whole study period.
After 4 hours fasting blood samples were collected from mice. Mice showing plasma glucose levels between 300 to 500 mg/dl were divided in groups (8-10 per group) such that the mean plasma glucose levels and variation within the group, for each group, is nearly same. After grouping, mice in respective groups received treatment with 0.5% CMC vehicle, standard compound or test compounds for 10 days.
After 4 hours fasting, mice were anaesthetized using isoflurane (inhalation anesthetic), and blood samples were collected through the retro orbital plexus. Collected blood samples were centrifuged at 7000 rpm for 10 minutes at 4° C.; Separated plasma was used for estimation of plasma glucose using diagnostic kits (Diasys, Germany). Plasma glucose levels of treated groups were normalized with control group using the following formula, which accounted for the changes in control group.
Formula used for normalization was *:{1−[…]}×100.

[4] = molecular target: T2, Mouse PPARγ (Mus musculus, UniProt P37238); assay: Mouse PPARγ assay (TransAM PPARγ ELISA, 3T3-L1 fibroblasts); format: cell-based; settings: test compound 50 μM, 72 hrs
T2 construct: endogenous in cells; host or cells: 3T3-L1 fibroblasts
T2 sequence (P37238 1-505): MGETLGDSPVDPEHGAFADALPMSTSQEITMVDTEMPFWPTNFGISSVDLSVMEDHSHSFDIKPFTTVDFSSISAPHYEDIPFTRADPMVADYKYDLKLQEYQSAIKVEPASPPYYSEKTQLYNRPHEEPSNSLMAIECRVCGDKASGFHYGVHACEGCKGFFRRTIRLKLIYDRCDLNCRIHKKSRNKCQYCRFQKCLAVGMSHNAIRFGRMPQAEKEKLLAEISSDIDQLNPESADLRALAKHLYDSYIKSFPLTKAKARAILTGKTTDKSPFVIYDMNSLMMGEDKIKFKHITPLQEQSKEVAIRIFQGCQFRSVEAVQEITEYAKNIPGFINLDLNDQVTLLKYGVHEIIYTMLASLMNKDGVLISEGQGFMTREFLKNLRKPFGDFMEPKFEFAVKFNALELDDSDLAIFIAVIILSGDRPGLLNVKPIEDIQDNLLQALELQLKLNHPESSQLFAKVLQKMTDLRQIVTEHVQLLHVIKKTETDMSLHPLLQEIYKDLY
Description: The assay was designed as in the reference, Blood, 104(5), 1361-8, 2004, the disclosure of which is incorporated by reference for the teaching of the assay.
3T3-L1 fibroblasts were seeded in 6-well plates at a density of 4×10^4 cells/well and cultured in DMEM containing 10% calf serum. After 4-5 days, when the cells become confluent, each of test compound was added (from a 20 mM stock in DMSO) to the final concentration of 50 μM in DMEM supplemented with 10% FCS. […] The plates were incubated for 72 hrs at 37° C. in a CO2 incubator with fresh medium containing test substances added after first 48 hrs. After 72 hrs, the medium was removed; the cell layer was washed and processed for the PPARγ assay as per the instruction of the manufacturer (Active Motif, North America, California, USA). PPARγ activation was determined using 96-well ELISA assay as per the instruction manual (TransAM PPARγ. Active Motif, Cat 0.40196). Assay Readout was absorbance output from spectrophotometer for the mouse PPARγ assay. Luminescence data output was recorded for the human PPARγ assay.

[5] = system: db/db mice; assay: Evaluation of lipid levels (dyslipidemia) in db/db mice; format: in vivo; settings: oral bid 15 days
Description: The assay was designed as in the reference, Metabolism, 49 (1), 22-31, 2000, the disclosure of which is incorporated by reference for the teaching of the assay. Seven groups of male db/db mice (8 animals per group) were used. […] Body weight was measured daily. On day 15, the animals were deprived of food for 4 hours after the last dose administration. Blood was collected at the end of the 4-hour period using heparinised capillaries by a retro-orbital puncture. Plasma samples were analyzed for glucose, triglyceride, cholesterol, using the autoanalyser.

Row | Structure (SMILES) | fold induction at 10 µM [1] | % of Rosiglitazone (comparison with Rosiglitazone) [1] | PPARγ activity (% of rosiglitazone) [2] | Normalization with control (plasma glucose) ([3]; 100 mpk bid) | PPARγ activity (% of rosiglitazone) [4] | Normalization with control (plasma glucose) ([3]; 150 mpk od) | lowering lipid levels compared with Rosiglitazone [5] | reduction in cholesterol levels ([5]; doses higher than 50 mpk) | melting point | Normalization with control (plasma glucose) ([3]; Rosiglitazone 5 mpk bid) | Normalization with control (plasma glucose) ([3]; Rosiglitazone 10 mpk od) | decrease in plasma triglyceride levels ([5]; Rosiglitazone 5 mpk) | reduction in cholesterol levels ([5]; Rosiglitazone 5 mpk)
1 | COc1ccc(S(=O)(=O)Nc2cnc(Oc3cnc4ccccc4c3)c(Cl)c2)cc1 [Example 26, N-(5-Chloro-6-(quinolin-3-yloxy)pyridin-3-yl)-4-methoxybenzenesulfonamide] | 2.19 ± 0.09 | 66.48 ± 5.26% | 19.3% | 41.90 ± 3.84 |  |  |  |  |  |  |  |  | 
2 | O=S(=O)(Nc1cnc(Oc2cc3ccccc3cn2)c(Cl)c1)c1ccc(Cl)cc1Cl [Example 1, 2,4-Dichloro-N-(5-chloro-6-(isoquinolin-3-yloxy)pyridin-3-yl)benzenesulfonamide] | 2.41 ± 0.06 | 78.75 ± 3.55% | 23% |  | 12.4% | 43.2 ± 15.7 | as efficacious as Rosiglitazone | 26% | 203 to 205 °C |  |  |  | 
3 | CN(CCOc1ccc(CC2SC(=O)NC2=O)cc1)c1ccccn1 (stereo not shown) [Rosiglitazone, reference compound] |  |  |  |  |  |  |  |  |  | 54.52 ± 4.92 and 107.9 ± 15.1 and 83.6 ± 12.8 | 93.8 ± 22.7 and 55.0 ± 11.4 | 40% | 27%
